Results taken from US20180235213A1, “PLANT HORMONE APPLICATION” (The State of Israel Ministry of Agriculture & Rural …, priority 2015, published 2018).

Tested on: olive seedlings
Experiment: Application via rigid tubes to olive seedlings under commercial nursery conditions
Format: in vivo, Olea europaea L.
Conditions: 50 μM with HPC+glycerin
Method: Experiments were performed in AGROGOLD nurseries under commercial nursery conditions, which include nethouse, 40% shed without temperature control. The tested formulations were applied in rigid tubes. […] The tube was sealed and fixed to the plant by cello tape. The tube was completely filled with ˜1 ml of the experimental formulation and then the top was covered with cotton (FIGS. 20A-20F). Each experiment included 10 olive plants for each treatment. The number of wake up buds was counted 75 days following application and the seedlings architecture, general growth and development were examined.
The bud growth effect of EGO10 (50 μM) or acetone control, each supplied together with HPC+glycerin on the stem of the olive cuttings was tested under the nursery conditions.

SMILES: CC1=C[C@H](O/C=C2\Cc3c(n(C)c4ccccc34)C2=O)OC1=O [EGO10]
- application site (bark and vascular system) after removal of the apparatus: unharmed and functional
- seedling outgrowth (75 days): not inhibited
- number of wake up buds (bud outgrowth) (rigid tubes, 75 days, vs acetone+HPC+glycerin): inhibits bud outgrowth significantly
- plant architecture (control seedlings bushy): one or two leading branches
